Data set [1] has as its system Enterococcus faecalis ATCC29212. The data set is described as follows: In vitro bacteriostasis test (MIC, broth microdilution). Type of data set: cell-based. The note with it: read-out: Minimum inhibitory concentration (MIC). On the procedure:
(§1) The in vitro bacteriostasis test (MIC) was carried out on the moxifloxacin eye drop delivery system prepared in the Example. The moxifloxacin technical drug was used as the control, while the moxifloxacin eye drop delivery system prepared in Example 6 was used as the test sample, to prepare a drug sensitive plate, so that the drug sensitive plate contained 7-8 diluted concentrations of moxifloxacin technical drug (the control) and the test sample, which was obtained by dilution in a ratio of 1:2. 25 bacterial strains incubated for 18 h-24 h were chosen using inoculation loop, and transferred into sterile physiological saline to form a bacterial suspension equivalent to 0.5 MCF; the bacterial suspension was added to the liquid drug sensitive media, in which the ratio of the bacterial suspension to the liquid media was 1:200, and mixed well, then 100 μL of diluted bacterial solution was added to each well; the media was incubated at 35° C.±2° C. for 16-20 h; the growth of bacteria in each well was determined by turbidity, and observed from low concentration to high concentration. The minimum drug concentration that could inhibit bacterial growth was the MIC of the drug.
Background: In broth dilution the organism is exposed to a series of concentrations in liquid medium.

The test system of data set [2] is Escherichia coli ATCC25922. The data set is described as above. The note with it: read-out: Minimum inhibitory concentration (MIC). Type of data set: cell-based. On the procedure:
as §1

For data set [3], the system named is Haemophilus influenza ATCC49247. The description is as above. In kind it is cell-based. The note with it: read-out: Minimum inhibitory concentration (MIC). On the procedure: as §1
Data set [4] has as its system Pseudomonas aeruginosa ATCC27853. Described as above. In kind it is cell-based. The note with it: read-out: Minimum inhibitory concentration (MIC). On the procedure:
as §1

The test system of data set [5] is Staphylococcus aureus ATCC29213. The description is as above. Type of data set: cell-based. The note with it: read-out: Minimum inhibitory concentration (MIC). On the procedure: as §1
The subject of data set [6] is Streptococcus pneumoniae ATCC49619. Described as above. Type of data set: cell-based. The note with it: read-out: Minimum inhibitory concentration (MIC). The procedure: as §1
The next data set relates to Streptococcus pneumoniae. The data set is described as above. In kind it is cell-based. The note with it: 3 unnamed strains (one per table line), read-out: Minimum inhibitory concentration (MIC). The procedure: as §1
In data set [7] the test system is human cytomegalovirus strains HCMV-AD169. The data set is described as follows: In vitro inhibitory activity against human cytomegalovirus (CPE in MRC-5 cells). Type of data set: cell-based. The note with it: for CPE of each well: 4 wells. The procedure:
The eye drop delivery systems of ganciclovir prepared in the Examples were tested for its in vitro inhibitory activities against human cytomegalovirus (HCMV).
Human embryo lung fibroblasts (MRC-5) infected with human cytomegalovirus strains HCMV-AD169 were chosen and used in the experiment, and the antiviral activity of ganciclovir was investigated with half effective dose (EC50). Four groups were included in the experiment, that is, the test group of the eye drop delivery systems prepared in the Examples, the test group of ganciclovir technical drug, the negative control group (MRC-5 cells), and the positive control group (MRC-5 cells infected with HCMV-AD169). The samples of both test groups were diluted with the culture media to obtain 6 diluted concentrations: 500 μg/mL, 250 μg/mL, 125 μg/mL, 62.5 μg/mL, 31.25 μg/mL, and 15.63 μg/mL, and 4 wells were set for each diluted concentration. Cytopathic effect (CPE) was used as an indicator: 0 for no cytopathy, 1 for ≤25% cytopathy, 2 for 25%-50% cytopathy, 3 for 50%-75% cytopathy, and 4 for 75%-100% cytopathy. The half effective dose (EC50) was calculated using Reed-Munch method: EC50=10n; n=[(logarithm of the dilution degree corresponding to an efficiency of >50%)+(percentage of >50% efficiency−50%)/(percentage of >50% efficiency−percentage of <50% efficiency)×logarithm of the dilution coefficient.
The experimental procedures were as follows: MRC-5 cells were adjusting to approximate 1.5×10^5/mL, and then added a 96 well plate, 100 μL of culture media for each well. The plate was cultured in a 37° C., 5% CO2 cell incubator, and then the supernatant was discarded after the cells adhered to the wall as a monolayer. Except for the control groups, […] were added to each well of both test groups at a concentration of 100×TC50 (half of the virus infected cells obtained in the pre-experiment) and then incubated for 2 h. The supernatant was discarded. A series of test samples were added at 100 μL/well, and then the plate was further cultivated. The CPE of each well was observed. When the CPE of the positive control group reached more than 90%, the CPE of each well was recorded, and the half effective dose (EC50) was calculated using the Reed Munch method.

The nature of data set [8]: API concentration in rat vitreous body after eye drops (LC/MS/MS). The note with it: 0.5 h after eye drops, 20 μL/eye; for concentration at 0.5 h: Sprague Dawley, rat, vitreous body, topical, read-out: API concentration in the vitreous body (vitreum) of rats. In kind it is in vivo, Sprague Dawley (SD) rats. The procedure: Unless otherwise stated, the method for verifying the result of delivering medicaments to the posterior segment of the eye was as follows:
Experimental instrument and equipment: High performance liquid chromatography, model: LC-20AD (Shimadzu, Japan); mass spectrometer: model: API4000 triple quadrupole mass spectrometer (Applied Biosystems, USA); chromatographic column: Fortis Pace C18 […], 2.1×30 mm (Fortis, UK).
Rats: Healthy adult Sprague Dawley (SD) rats were divided into a test group and a control group, with 6 eyes in each group. The test group received eye drops of the ophthalmic preparation prepared in the Example of the present invention, while the control group received the suspension of medicament (2 mg) in 5 mL of physiological saline (vortex shaking prior to use), at a dosage of 20μL/eye. 0.5 h or 1 h after administration, the animals were euthanized, and the vitreous bodies were quickly collected. The vitreous samples were homogenized and stored at-80° C. To 10 μL of vitreous homogenate, was added 90 μL of 95% ethanol, and then the solution was mixed under ultrasonic for 2 min, followed by vortex mixing for 1 min, to obtain the vitreous homogenate; to 50 μL of the homogenate, was added 175 μL of methanol, and then the resultant solution was vortex mixed for 3 min, and centrifuged at 4° C. and 12000 rpm for 10 min. The supernatant was filtered using a 0.45 μm needle filter. The filtrate was subjected to LC/MS/MS (Positive ion mode, MRM SCAN) analysis.

Molecules are shown by their SMILES. In brackets after ≈: the same amount, converted by molar mass. Several values for one entry are separate records, joined by “and”; a condition that tells them apart may be missing. Equal entries are not always repeated. Bounds are passed on as bounds.

For the compound `COc1c(N2C[C@@H]3CCCN[C@@H]3C2)c(F)cc2c(=O)c(C(=O)O)cn(C3CC3)c12` [Moxifloxacin, moxifloxacin], the MIC was 0.5 µg/mL (≈ 1.25 µM) in data set [1]; 0.06 µg/mL (≈ 0.149 µM) in data set [2]; at most 0.032 µg/mL in data set [3]; 4 µg/mL (≈ 9.96 µM) in data set [4]; 0.12 µg/mL (≈ 0.299 µM) in data set [5]; 0.12 µg/mL (≈ 0.299 µM) in data set [6]. For the same compound, in the data set with Streptococcus pneumoniae, the MIC stood at 0.25 µg/mL (≈ 0.623 µM).
Take `Nc1nc(O)c2ncn(COC(CO)CO)c2n1` [Ganciclovir technical drug, ganciclovir]: the Effective rate stood at 21% in data set [7] (15.63 μg/mL); 35% in data set [7] (31.25 μg/mL); 64% in data set [7] (62.5 μg/mL); 77% in data set [7] (125 μg/mL); 91% in data set [7] (250 μg/mL); 97% in data set [7] (500 μg/mL). Further, the “CPE of each well” value was 4 (4 for 75%-100% cytopathy) and 3 (3 for 50%-75% cytopathy) in data set [7] (15.63 μg/mL); 3 (3 for 50%-75% cytopathy) in [7] (31.25 μg/mL); 2 (2 for 25%-50% cytopathy) and 3 (3 for 50%-75% cytopathy) in data set [7] (62.5 μg/mL); 2 (2 for 25%-50% cytopathy) and 1 (1 for ≤25% cytopathy) in [7] (125 μg/mL).
`C[C@H]1c2cccc(O)c2C(=O)C2=C(O)[C@]3(O)C(=O)C(C(N)=O)=C(O)[C@@H](N(C)C)[C@@H]3[C@@H](O)[C@@H]21` [doxycycline]: the concentration at 0.5 h in data set [8] was below 1 ng/g.
Consider `O=C(O)CCCC[C@@H]1CCSS1` (racemic) [lipoic acid], for which, in data set [8], the “API concentration in the vitreous body (vitreum) of rats” value is listed as below 1 ng/g.
In the case of `C[C@@H]1C[C@H]2[C@@H]3CCC4=CC(=O)C=C[C@]4(C)[C@@]3(F)[C@@H](O)C[C@]2(C)[C@@]1(O)C(=O)CO` [dexamethasone], the concentration at 0.5 h in [8] is below 1 ng/g.

These data come from patent US20250017848A1, “CARRIER OR AUXILIARY MATERIAL OF OPHTHALMIC PREPARATION, PREPARATION METHOD THEREFOR, AND APPLICATION THEREOF” (CHENGDU RUIMU BIOPHARMACEUTICALS CO., LTD., priority 2021, published 2025).
